# Test results published in ChEMBL document CHEMBL1201862, “PubChem BioAssay data set” (2004).
#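 Protocol summary: plate cells (96-well), add compound at 5 concentrations, incubate 48 h, interpolate endpoints linearly. Here, GI50 denotes the concentration required for 50% inhibition of growth.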 Active and inactive are the calls of the source. Rule as the data show it: active = GI50 up to about 1.1 µM and inactive = higher.
# Key:
# Test in all cases: DTP human tumour cell line panel, 48 h
# A498 = tested on: A498
# A549 = tested on: A549
# CCRF-CEM = tested on: CCRF-CEM
# COLO 205 = tested on: COLO 205
# DMS-114 = tested on: DMS-114
# DMS-273 = tested on: DMS-273
# EKVX = tested on: EKVX
# HCC 2998 = tested on: HCC 2998
# HCT-116 = tested on: HCT-116
# HCT-15 = tested on: HCT-15
# HL-60 = tested on: HL-60
# HOP-18 = tested on: HOP-18
# HOP-62 = tested on: HOP-62
# HOP-92 = tested on: HOP-92
# HT-29 = tested on: HT-29
# IGROV-1 = tested on: IGROV-1
# K562 = tested on: K562
# KM-20L2 = tested on: KM-20L2
# KM12 = tested on: KM12
# LOX IMVI = tested on: LOX IMVI
# M19-MEL = tested on: M19-MEL
# MCF7 = tested on: MCF7
# MOLT-4 = tested on: MOLT-4
# Malme-3M = tested on: Malme-3M
# NCI-H226 = tested on: NCI-H226
# NCI-H23 = tested on: NCI-H23
# NCI-H460 = tested on: NCI-H460
# NCI-H522 = tested on: NCI-H522
# NCI/ADR-RES = tested on: NCI/ADR-RES
# OVCAR-3 = tested on: OVCAR-3
# OVCAR-4 = tested on: OVCAR-4
# OVCAR-5 = tested on: OVCAR-5
# OVCAR-8 = tested on: OVCAR-8
# RPMI-8226 = tested on: RPMI-8226
# RXF 393 = tested on: RXF 393
# SF-268 = tested on: SF-268
# SF-295 = tested on: SF-295
# SF-539 = tested on: SF-539
# SK-MEL-28 = tested on: SK-MEL-28
# SK-MEL-2 = tested on: SK-MEL-2
# SK-MEL-5 = tested on: SK-MEL-5
# SK-OV-3 = tested on: SK-OV-3
# SN12C = tested on: SN12C
# SNB-19 = tested on: SNB-19
# SNB-75 = tested on: SNB-75
# SNB-78 = tested on: SNB-78
# SW-620 = tested on: SW-620
# U-251 = tested on: U-251
# UACC-257 = tested on: UACC-257
# UACC-62 = tested on: UACC-62
# UO-31 = tested on: UO-31
# XF498 = tested on: XF498
# DLD-1 = tested on: DLD-1
compound,measurement,setting,value
ClCc1nnc2n1-c1ccc(Cl)cc1SC2,GI50,A498,4.03 µM (inactive)
same,GI50,A549,5.05 µM (inactive)
same,GI50,CCRF-CEM,2.19 µM (inactive)
same,GI50,COLO 205,4.06 µM (inactive)
same,GI50,DMS-114,2.8 µM (inactive)
same,GI50,DMS-273,2.92 µM (inactive)
same,GI50,EKVX,13.3 µM (inactive)
same,GI50,HCC 2998,4.06 µM (inactive)
same,GI50,HCT-116,3.1 µM (inactive)
same,GI50,HCT-15,4.56 µM
same,GI50,HL-60,1.56 µM (inactive)
same,GI50,HOP-18,2.92 µM (inactive)
same,GI50,HOP-62,6.25 µM (inactive)
same,GI50,HOP-92,2.55 µM (inactive)
same,GI50,HT-29,3.65 µM (inactive)
same,GI50,IGROV-1,2.94 µM (inactive)
same,GI50,K562,2.9 µM (inactive)
same,GI50,KM-20L2,4.67 µM (inactive)
same,GI50,KM12,4.35 µM (inactive)
same,GI50,LOX IMVI,1.49 µM (inactive)
same,GI50,M19-MEL,3.23 µM (inactive)
same,GI50,MCF7,4.2 µM (inactive)
same,GI50,MOLT-4,1.45 µM (inactive)
same,GI50,Malme-3M,3.88 µM (inactive)
same,GI50,NCI-H226,1.94 µM (inactive)
same,GI50,NCI-H23,2.35 µM (inactive)
same,GI50,NCI-H460,3.66 µM (inactive)
same,GI50,NCI-H522,1.63 µM (inactive)
same,GI50,NCI/ADR-RES,1.78 µM (inactive)
same,GI50,OVCAR-3,2.17 µM (inactive)
same,GI50,OVCAR-4,3.89 µM (inactive)
same,GI50,OVCAR-5,12.2 µM (inactive)
same,GI50,OVCAR-8,4.02 µM (inactive)
same,GI50,RPMI-8226,3.3 µM (inactive)
same,GI50,RXF 393,2.23 µM (inactive)
same,GI50,SF-268,2.87 µM (inactive)
same,GI50,SF-295,2.21 µM (inactive)
same,GI50,SF-539,3.47 µM (inactive)
same,GI50,SK-MEL-28,4.74 µM (inactive)
same,GI50,SK-MEL-2,2.81 µM (inactive)
same,GI50,SK-MEL-5,2.62 µM (inactive)
same,GI50,SK-OV-3,3.56 µM (inactive)
same,GI50,SN12C,7.26 µM (inactive)
same,GI50,SNB-19,13 µM (inactive)
same,GI50,SNB-75,3.15 µM (inactive)
same,GI50,SNB-78,5.4 µM (inactive)
same,GI50,SW-620,4.55 µM (inactive)
same,GI50,U-251,6.59 µM (inactive)
same,GI50,UACC-257,2.16 µM (inactive)
same,GI50,UACC-62,2.69 µM (inactive)
same,GI50,UO-31,15.1 µM (inactive)
same,GI50,XF498,5.57 µM (inactive)
C#CC[C@@]12CC(=O)C[C@@H]1CCC1(C2)OCCO1.C#CC[C@]12CC(=O)CC[C@H]1CC(=O)C2,GI50,A498,> 100 µM (inactive)
same,GI50,A549,> 100 µM (inactive)
same,GI50,CCRF-CEM,60.1 µM (inactive)
same,GI50,COLO 205,> 100 µM (inactive)
same,GI50,DLD-1,> 100 µM (inactive)
same,GI50,DMS-273,> 100 µM (inactive)
same,GI50,EKVX,> 100 µM (inactive)
same,GI50,HCC 2998,> 100 µM (inactive)
same,GI50,HCT-116,> 100 µM (inactive)
same,GI50,HCT-15,> 100 µM
same,GI50,HL-60,29.1 µM (inactive)
same,GI50,HOP-18,90.6 µM (inactive)
same,GI50,HOP-62,> 100 µM (inactive)
same,GI50,HOP-92,> 100 µM (inactive)
same,GI50,HT-29,> 100 µM (inactive)
same,GI50,IGROV-1,> 100 µM (inactive)
same,GI50,K562,59.7 µM (inactive)
same,GI50,KM-20L2,> 100 µM (inactive)
same,GI50,KM12,> 100 µM (inactive)
same,GI50,LOX IMVI,> 100 µM (inactive)
same,GI50,M19-MEL,> 100 µM (inactive)
same,GI50,MCF7,> 100 µM (inactive)
same,GI50,MOLT-4,34.4 µM (inactive)
same,GI50,Malme-3M,> 100 µM (inactive)
same,GI50,NCI-H226,> 100 µM (inactive)
same,GI50,NCI-H23,> 100 µM (inactive)
same,GI50,NCI-H460,> 100 µM (inactive)
same,GI50,NCI-H522,> 100 µM (inactive)
same,GI50,NCI/ADR-RES,> 100 µM (inactive)
same,GI50,OVCAR-3,> 100 µM (inactive)
same,GI50,OVCAR-4,> 100 µM (inactive)
same,GI50,OVCAR-5,> 100 µM (inactive)
same,GI50,OVCAR-8,> 100 µM (inactive)
same,GI50,RPMI-8226,> 100 µM (inactive)
same,GI50,RXF 393,> 100 µM (inactive)
same,GI50,SF-268,> 100 µM (inactive)
same,GI50,SF-295,> 100 µM (inactive)
same,GI50,SF-539,> 100 µM (inactive)
same,GI50,SK-MEL-28,> 100 µM (inactive)
same,GI50,SK-MEL-2,> 100 µM (inactive)
same,GI50,SK-MEL-5,> 100 µM (inactive)
same,GI50,SK-OV-3,> 100 µM (inactive)
same,GI50,SN12C,> 100 µM (inactive)
same,GI50,SNB-19,> 100 µM (inactive)
same,GI50,SNB-75,97.7 µM (inactive)
same,GI50,SNB-78,> 100 µM (inactive)
same,GI50,SW-620,> 100 µM (inactive)
same,GI50,U-251,> 100 µM (inactive)
same,GI50,UACC-257,90.8 µM (inactive)
same,GI50,UACC-62,95.5 µM (inactive)
same,GI50,UO-31,> 100 µM (inactive)
same,GI50,XF498,> 100 µM (inactive)
